Structures can show the parent of a compound that is named as a salt.
Each compound was assayed against FLT3 kinase (FLT3 kinase domain alone, Upstate) (Homo sapiens (Human), UniProt P36888) (assay: FLT3 kinase assay ([33P] incorporation into substrate)). Conditions: 100 μM ATP, 30° C., 30 minutes; read-out: IC50 against FLT3.
Type: biochemical
Procedure: Inhibition of FLT3 kinase activity by compounds disclosed herein was quantified by measuring the amount of [^33P] incorporated into the substrate in the presence of a test compound. Briefly, a reaction mixture of 25 μL final volume containing 5 ng of FLT3 kinase (FLT3 kinase domain alone, Upstate), 5 μg of the substrate [(Poly (Glu-Tyr, 4:1), Sigma], kinase reaction buffer (20 mM MOPS pH 7.0, 1 mM EDTA, 5% glycerol, 0.01% Brij-35, 0.1% β-mercaptoethanol, 1 mg/mL BSA, 100 μM ATP, 0.1 μCi per well [^33P]-γ-ATP (2,500-3,000 Ci/mmol)), and a test compound (diluted from 9 μM to the desired final concentration by 4% DMSO) or DMSO (as the control) was incubated at 30° C. for 30 minutes. The reaction was stopped by adding 5 μL of 3% phosphoric acid solution. The resultant solution (30 μL) was later harvested by a UniFilter Plate GF/B (PerkinElmer) followed by adding 30 μL of the scintillation cocktail (MicroScint 20, PerkinElmer) to the well. The radioactivity retained on the filter membrane was measured by a luminescence counter (PerkinElmer). The results were analyzed by using linear regression software (GraphPad Prism 4; GraphPad Software Inc.).

Chain of FLT3 kinase (FLT3 kinase domain alone, Upstate) (P36888 610-943): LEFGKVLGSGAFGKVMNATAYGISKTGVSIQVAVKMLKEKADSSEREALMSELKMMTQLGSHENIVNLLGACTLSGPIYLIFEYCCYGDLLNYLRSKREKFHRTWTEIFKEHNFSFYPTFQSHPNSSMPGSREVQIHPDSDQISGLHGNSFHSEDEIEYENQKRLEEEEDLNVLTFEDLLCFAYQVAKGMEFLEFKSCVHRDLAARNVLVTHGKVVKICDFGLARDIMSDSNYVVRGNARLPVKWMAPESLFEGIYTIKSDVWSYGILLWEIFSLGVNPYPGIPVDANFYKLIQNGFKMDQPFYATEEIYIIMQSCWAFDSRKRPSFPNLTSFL

| SMILES | IC50 [nM] |
| --- | --- |
| Brc1ccccc1-c1n[nH]c2c1Cc1sccc1-2 [Example-44, 6-(2-Bromo-phenyl)-4,7-dihydro-1-thia-4,5-diaza-cyclopenta[a]pentalene] | > 1000 |
| COc1ccccc1Nc1n[nH]c2c1Cc1sccc1-2 [Example-45, (4,7-Dihydro-1-thia-4,5-diaza-cyclopenta[a]pentalen-6-yl)-(2-methoxy-phenyl)-amine] | 100 to 499 |
| FC(F)(F)Oc1ccc(Nc2n[nH]c3c2Cc2sccc2-3)cc1 [Example-46, (4,7-Dihydro-1-thia-4,5-diaza-cyclopenta[a]pentalen-6-yl)-(4-trifluoromethoxy-phenyl)-amine] | 500 to 1000 |
| Brc1cccc(-c2n[nH]c3c2Cc2sccc2-3)c1 [Example-47, 6-(3-Bromo-phenyl)-4,7-dihydro-1-thia-4,5-diaza-cyclopenta[a]pentalene] | < 100 |
| FC(F)(F)Oc1ccccc1Nc1n[nH]c2c1Cc1sccc1-2 [Example-48, (4,7-Dihydro-1-thia-4,5-diaza-cyclopenta[a]pentalen-6-yl)-(2-trifluoromethoxy-phenyl)-amine] | > 1000 |
| Clc1cc(Cl)cc(Nc2n[nH]c3c2Cc2sccc2-3)c1 [Example-49, (3,5-Dichloro-phenyl)-(4,7-dihydro-1-thia-4,5-diaza-cyclopenta[a]pentalen-6-yl)-amine] | 100 to 499 |
| O=C1c2sccc2-c2[nH]nc(-c3cccc(Cl)c3)c21 [Example-50, 6-(3-Chloro-phenyl)-4H-1-thia-4,5-diaza-cyclopenta[a]pentalen-7-one] | 100 to 499 |
| COc1ccccc1-c1n[nH]c2c1Cc1sccc1-2 [Example-51, 6-(2-Methoxy-phenyl)-4,7-dihydro-1-thia-4,5-diaza-cyclopenta[a]pentalene] | < 100 |
| Clc1ccc(Nc2n[nH]c3c2Cc2sccc2-3)cc1Cl [Example-53, (3,4-Dichloro-phenyl)-(4,7-dihydro-1-thia-4,5-diaza-cyclopenta[a]pentalen-6-yl)-amine] | 100 to 499 |
| Clc1cccc(Nc2n[nH]c3c2Cc2sccc2-3)c1Cl [Example-54, (2,3-Dichloro-phenyl)-(4,7-dihydro-1-thia-4,5-diaza-cyclopenta[a]pentalen-6-yl)-amine] | 100 to 499 |
| O=S(=O)(c1ccc(Nc2n[nH]c3c2Cc2sccc2-3)cc1)N1CCCCC1 [Example-55, (4,7-Dihydro-1-thia-4,5-diaza-cyclopenta[a]pentalen-6-yl)-[4-(piperidine-1-sulfonyl)-phenyl]-amine] | 100 to 499 |
| Nc1ccc(-c2n[nH]c3c2C(=O)c2sccc2-3)cc1 [Example-56, 6-(4-Amino-phenyl)-4H-1-thia-4,5-diaza-cyclopenta[a]pentalen-7-one] | < 100 |
| Clc1cc(Cl)cc(-c2n[nH]c3c2Cc2sccc2-3)c1 [Example-57, 6-(3,5-Dichloro-phenyl)-4,7-dihydro-1-thia-4,5-diaza-cyclopenta[a]pentalene] | 100 to 499 |
| c1ccc(-c2n[nH]c3c2Cc2sccc2-3)nc1 [Example-58, 6-Pyridin-2-yl-4,7-dihydro-1-thia-4,5-diaza-cyclopenta[a]pentalene] | 100 to 499 |
| Nc1cccc(-c2n[nH]c3c2Cc2sccc2-3)c1 [Example-59, 3-(4,7-Dihydro-1-thia-4,5-diaza-cyclopenta[a]pentalen-6-yl)-phenylamine hydrochloride] | 100 to 499 |
| c1cc(-c2n[nH]c3c2Cc2sccc2-3)ccn1 [Example-60, 6-Pyridin-4-yl-4,7-dihydro-1-thia-4,5-diaza-cyclopenta[a]pentalene] | < 100 |
| [O-][n+]1ccc(-c2n[nH]c3c2Cc2sccc2-3)cc1 [Example-61, 6-(1-Oxy-pyridin-4-yl)-4,7-dihydro-1-thia-4,5-diaza-cyclopenta[a]pentalene] | 100 to 499 |
| c1cc(Nc2ccc(-c3n[nH]c4c3Cc3sccc3-4)cc2)ccn1 [Example-62, [4-(4,7-Dihydro-1-thia-4,5-diaza-cyclopenta[a]pentalen-6-yl)-phenyl]-pyridin-4-yl-amine hydrochloride] | < 100 |
| c1cncc(Nc2ccc(-c3n[nH]c4c3Cc3sccc3-4)cc2)c1 [Example-63, [4-(4,7-Dihydro-1-thia-4,5-diaza-cyclopenta[a]pentalen-6-yl)-phenyl]-pyridin-3-yl-amine] | < 100 |
| Brc1ccc(-c2n[nH]c3c2Cc2sccc2-3)cn1 [Example-64, 6-(6-Bromo-pyridin-3-yl)-4,7-dihydro-1-thia-4,5-diaza-cyclopenta[a]pentalene] | 100 to 499 |

| SMILES | IC50 [nM] |
| --- | --- |
| COc1ccc(-c2n[nH]c3c2Cc2sc(-c4ccccc4)cc2-3)cc1 [Example-65, 6-(4-Methoxy-phenyl)-2-phenyl-4,7-dihydro-1-thia-4,5-diaza-cyclopenta[a]pentalene] | < 100 |
| Nc1ccc(-c2n[nH]c3c2Cc2sccc2-3)cn1 [Example-66, 5-(4,7-Dihydro-1-thia-4,5-diaza-cyclopenta[a]pentalen-6-yl)-pyridin-2-ylamine hydrochloride] | < 100 |
| Brc1ccc(-c2n[nH]c3c2Cc2sc(Br)cc2-3)cn1 [Example-67, 2-Bromo-6-(6-bromo-pyridin-3-yl)-4,7-dihydro-1-thia-4,5-diaza-cyclopenta[a]pentalene] | 100 to 499 |
| O=C1c2sccc2-c2[nH]nc(-c3ccc(Br)nc3)c21 [Example-68, 6-(6-Bromo-pyridin-3-yl)-4H-1-thia-4,5-diaza-cyclopenta[a]pentalen-7-one] | 500 to 1000 |
| COc1ccc(-c2n[nH]c3c2Cc2sc(-c4ccc(F)cc4)cc2-3)cc1 [Example-71, 2-(4-Fluoro-phenyl)-6-(4-methoxy-phenyl)-4,7-dihydro-1-thia-4,5-diaza-cyclopenta[a]pentalene] | < 100 |
| COc1ccc(-c2n[nH]c3c2Cc2sc(-c4ccc(F)c(F)c4)cc2-3)cc1 [Example-72, 2-(3,4-Difluoro-phenyl)-6-(4-methoxy-phenyl)-4,7-dihydro-1-thia-4,5-diaza-cyclopenta[a]pentalene] | < 100 |
| COc1ccc(-c2cc3c(s2)Cc2c(-c4ccc(OC)cc4)n[nH]c2-3)cc1 [Example-73, 2,6-Bis-(4-methoxy-phenyl)-4,7-dihydro-1-thia-4,5-diaza-cyclopenta[a]pentalene] | < 100 |
| COc1ccc(-c2n[nH]c3c2Cc2sc(-c4ccc(OC)c(OC)c4)cc2-3)cc1 [Example-74, 2-(3,4-Dimethoxy-phenyl)-6-(4-methoxy-phenyl)-4,7-dihydro-1-thia-4,5-diaza-cyclopenta[a]pentalene] | < 100 |
| COc1ccc(-c2n[nH]c3c2Cc2sc(-c4ccc(O)c(OC)c4)cc2-3)cc1 [Example-75, 2-Methoxy-4-[6-(4-methoxy-phenyl)-4,7-dihydro-1-thia-4,5-diaza-cyclopenta[a]pentalen-2-yl]-phenol] | < 100 |
| COc1ccc(-c2n[nH]c3c2Cc2sc(-c4ccoc4)cc2-3)cc1 [Example-77, 2-Furan-3-yl-6-(4-methoxy-phenyl)-4,7-dihydro-1-thia-4,5-diaza-cyclopenta[a]pentalene] | < 100 |
| COc1ccc(-c2n[nH]c3c2Cc2sc(-c4cnc(N)nc4)cc2-3)cc1 [Example-79, 5-[6-(4-Methoxy-phenyl)-4,7-dihydro-1-thia-4,5-diaza-cyclopenta[a]pentalen-2-yl]-pyrimidin-2-ylamine] | < 100 |
| CN1CCN(c2ccc(-c3n[nH]c4c3Cc3sccc3-4)cc2)CC1 [Example-80, 6-[4-(4-Methyl-piperazin-1-yl)-phenyl]-4,7-dihydro-1-thia-4,5-diaza-cyclopenta[a]pentalene] | < 100 |
| COc1ccc(-c2n[nH]c3c2Cc2sc(-c4ccc(N5CCN(C)CC5)nc4)cc2-3)cc1 [Example-81, 6-(4-Methoxy-phenyl)-2-[6-(4-methyl-piperazin-1-yl)-pyridin-3-yl]-4,7-dihydro-1-thia-4,5-diaza-cyclopenta[a]pentalene] | < 100 |
| COc1ccc(-c2n[nH]c3c2Cc2sc(-c4ccc(OC)c(F)c4)cc2-3)cc1 [Example-83, 2-(3-Fluoro-4-methoxy-phenyl)-6-(4-methoxy-phenyl)-4,7-dihydro-1-thia-4,5-diaza-cyclopenta[a]pentalene] | < 100 |
| c1cc2c(s1)Cc1c(-c3ccc(N4CCCC4)cc3)n[nH]c1-2 [Example-84, 6-(4-Pyrrolidin-1-yl-phenyl)-4,7-dihydro-1-thia-4,5-diaza-cyclopenta[a]pentalene] | 100 to 499 |
| c1cc2c(s1)Cc1c(-c3ccc(N4CCOCC4)cc3)n[nH]c1-2 [Example-85, 6-(4-Morpholin-4-yl-phenyl)-4,7-dihydro-1-thia-4,5-diaza-cyclopenta[a]pentalene] | < 100 |
| COc1ccc(-c2n[nH]c3c2Cc2sc(-c4cccc(N)c4)cc2-3)cc1 [Example-86, 3-[6-(4-Methoxy-phenyl)-4,7-dihydro-1-thia-4,5-diaza-cyclopenta[a]pentalen-2-yl]-phenylamine] | < 100 |
| COc1ccc(-c2n[nH]c3c2C(=O)c2sc(-c4ccc(N)nc4)cc2-3)cc1 [Example-87, 2-(6-Amino-pyridin-3-yl)-6-(4-methoxy-phenyl)-4H-1-thia-4,5-diaza-cyclopenta[a]pentalen-7-one] | < 100 |
| Nc1ccc(-c2cc3c(s2)Cc2c(-c4ccc(N5CCOCC5)cc4)n[nH]c2-3)cn1 [Example-88, 5-[6-(4-Morpholin-4-yl-phenyl)-4,7-dihydro-1-thia-4,5-diaza-cyclopenta[a]pentalen-2-yl]-pyridin-2-Ylamine hydrochloride] | < 100 |

From patent US8853207B2 (Development Center for Biotechnology, priority 2012, dated 2014)
